Measurements as given in patent publication US7157594B2, “6-Fluorobicyclo[3.1.0]hexane derivatives” (Taisho Pharmaceutical Co., Ltd., priority 2001, dated 2007).
Like-named read-outs stand apart in the source and are kept apart here.

What was measured:
[1] = target: T1, metabotropic glutamate receptor mGluR2 (Rattus norvegicus, UniProt P31421); test: Antagonistic effect on glutamic acid-induced inhibition of forskolin-stimulated cAMP accumulation in CHO cells stably expressing mGluR2; format: cell-based
T1 construct: expressed in transfected cells
Procedure: Antagonistic Effect of Test Drugs on cAMP Accumulation in CHO Cells Modified to Stably Express Metabotropic Glutamate Receptor mGluR2
Using Dulbecco's modified Eagle's medium with 10% dialyzed fetal bovine serum [1% proline, 50 units/ml penicillin, 50 μg/ml streptomycin, 2 mM L-glutamine (added before use)], CHO cells modified to stably express metabotropic glutamate receptor mGluR2 were seeded in 96-well plates at a ratio of 1.26×10^4 cells/well/0.32 cm^2/150 μl and grown at 37° C. under 5% CO2 for 2 days. The medium was then replaced by L-glutamine-free medium, and after 4 hours, the supernatant was removed by aspiration. PBS(+)-IBMX (10 mM PBS(−), 1 mM MgCl2, 1 mM CaCl2, 1 mM IBMX) was added in 150 μl aliquots and the plates were incubated for 20 minutes at 37° C. under 5% CO2. […] The dried samples were assayed for cAMP levels using a cAMP EIA kit (Amersham). The value of control samples was subtracted from each measured cAMP level.

[2] = test system: male SD rats; test: Antidepressant effect by forced swimming test in rats; format: in vivo, rat; conditions: two i.p. injections (24 hours and 1 hour before) at 0.3, 1 or 3 mg/kg, compared to solvent group, Dunnett's test, FIGS. 1 and 2
Procedure: Evaluation of Antidepressant Effect by Forced Swimming Test in Rats
• (1) The animals used for this experiment were male SD rats (body weigh: 220–240 g, Charles River Japan). • (2) The test drugs used were:
Namely, the rats were placed in a cylinder containing water 30 cm deep and forced to swim for 15 minutes. After a period of 24 hours, the rats were forced again to swim for 5 minutes (actual experiment). The immobility time in this actual experiment was measured for each rat to evaluate the antidepressant effect of test drugs.
The test groups received two intraperitoneal injections (24 hours and 1 hour before the actual experiment) of LY341495 or Compound 34 in 1/15 M phosphate buffer at a dose of 0.3 mg/kg, 1 mg/kg or 3 mg/kg. The solvent group received only 1/15 M phosphate buffer by intraperitoneal route. • (4) The symbols * and ** in FIGS. 1 and 2 denote statistical significance at P<0.05 and P<0.01 by Dunnett's test, respectively, when compared to the solvent group receiving 1/15 M phosphate buffer.

[3] = 30 μM glutamic acid, 10^-5 M forskolin
[4] = read-out: IC50, concentration required for 50% antagonism of inhibitory effect of 30 μM glutamic acid on 10^-5 M forskolin-stimulated cAMP level

T1 sequence (P31421 19-872): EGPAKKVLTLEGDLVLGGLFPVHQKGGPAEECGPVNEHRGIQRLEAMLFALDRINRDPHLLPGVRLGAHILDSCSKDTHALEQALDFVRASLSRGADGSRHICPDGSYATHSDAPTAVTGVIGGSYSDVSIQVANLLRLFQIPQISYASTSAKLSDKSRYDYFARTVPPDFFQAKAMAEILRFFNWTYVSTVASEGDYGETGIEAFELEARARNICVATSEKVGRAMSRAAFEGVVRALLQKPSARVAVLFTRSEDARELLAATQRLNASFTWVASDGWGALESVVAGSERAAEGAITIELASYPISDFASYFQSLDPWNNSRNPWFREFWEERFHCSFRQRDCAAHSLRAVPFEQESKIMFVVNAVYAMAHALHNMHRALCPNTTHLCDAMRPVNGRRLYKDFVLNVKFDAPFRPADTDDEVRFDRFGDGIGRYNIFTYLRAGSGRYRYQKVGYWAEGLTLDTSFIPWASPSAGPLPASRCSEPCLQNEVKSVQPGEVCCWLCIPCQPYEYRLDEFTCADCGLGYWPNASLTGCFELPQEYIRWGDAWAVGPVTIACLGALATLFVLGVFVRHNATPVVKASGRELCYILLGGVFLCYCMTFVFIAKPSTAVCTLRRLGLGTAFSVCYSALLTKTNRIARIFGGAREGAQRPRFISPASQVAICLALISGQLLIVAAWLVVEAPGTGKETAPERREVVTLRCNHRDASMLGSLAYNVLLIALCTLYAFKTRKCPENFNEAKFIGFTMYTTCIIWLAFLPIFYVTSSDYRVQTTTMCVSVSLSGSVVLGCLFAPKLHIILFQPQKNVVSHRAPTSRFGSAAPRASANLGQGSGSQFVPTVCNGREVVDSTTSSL

SMILES: CCCC(C)OC1C[C@@H]2[C@@H]([C@@]2(F)C(=O)O)[C@]1(N)C(=O)O (stereo partly drawn) [Compound 44]
- melting point: > 170 °C

SMILES: NC1(C(=O)O)C(OC(c2ccccc2)c2ccccc2)CC2C1C2(F)C(=O)O (stereo not drawn) [Compound 52]
- IC50 [1, 3]: 24.4 nM
- melting point: > 230 °C

SMILES: COC1C[C@@H]2[C@@H]([C@@]2(F)C(=O)O)[C@]1(N)C(=O)O (stereo partly drawn) [Compound 2]
- melting point: > 171 °C

SMILES: N[C@](CC1c2ccccc2Oc2ccccc21)(C(=O)O)[C@H]1C[C@@H]1C(=O)O [LY341495, (2S)-2-amino-2-((1S,2S)-2-carboxycycloprop-1-yl)-3-(9-xanthyl)propionic acid, reference compound]
- immobility time in forced swimming test [2]: significant dose-dependent reduction in immobility time

SMILES: N[C@]1(C(=O)O)[C@H]2[C@@H](C[C@H]1OCc1ccc(Cl)cc1)[C@]2(F)C(=O)O [Compound 22]
- IC50 [1, 4]: 29.1 nM
- melting point: > 220 °C

SMILES: CO[C@@H]1C[C@@H]2[C@H]([C@]1(N)C(=O)O)[C@@]2(F)C(=O)O [Compound 1, (1R,2R,3R,5R,6R)-2-amino-3-methoxy-6-fluorobicyclo[3.1.0]hexane-2,6-dicarboxylic acid]
- IC50 [1, 4]: 229 nM
- melting point: > 199 °C

SMILES: CC(O[C@@H]1C[C@@H]2[C@H]([C@]1(N)C(=O)O)[C@@]2(F)C(=O)O)c1ccc2ccccc2c1 (relative stereo) [58]
- melting point: > 188 °C

SMILES: Nc1cccc(CO[C@@H]2C[C@@H]3[C@H]([C@]2(N)C(=O)O)[C@@]3(F)C(=O)O)c1 (hydrate or solvate)
- melting point: > 190 °C

SMILES: NC1(C(=O)O)C(OCc2ccccc2)CC2C1C2(F)C(=O)O (stereo not drawn) [Compound 6]
- IC50 [1, 3]: 131 nM
- melting point: > 226 °C

SMILES: C=CCO[C@@H]1C[C@@H]2[C@H]([C@]1(N)C(=O)O)[C@@]2(F)C(=O)O [Compound 5, (1R,2R,3R,5R,6R)-2-Amino-3-(2-propenyloxy)-6-fluorobicyclo[3.1.0]hexane-2,6-dicarboxylic acid]
- melting point: > 248 °C

SMILES: NC1(C(=O)O)C(OCc2ccc3ccccc3c2)CC2C1C2(F)C(=O)O (stereo not drawn) [Compound 42]
- IC50 [1, 3]: 22.7 nM
- melting point: > 210 °C

SMILES: CCOC(=O)[C@@]1(N)[C@H]2[C@@H](C[C@H]1OCc1ccc(Cl)c(Cl)c1)[C@]2(F)C(=O)O
- melting point: > 233 °C

SMILES: NC1(C(=O)O)C(OCc2ccc(F)c(F)c2)CC2C1C2(F)C(=O)O (stereo not drawn) [Compound 28]
- IC50 [1, 3]: 40.8 nM

SMILES: N[C@]1(C(=O)O)[C@H]2[C@@H](C[C@H]1OCc1ccc(Cl)c(Cl)c1)[C@]2(F)C(=O)O [Compound 34, (1R,2R,3R,5R,6R)-2-amino-3-(3,4-dichlorobenzyloxy)-6-fluorobicyclo[3.1.0]hexane-2,6-dicarboxylic acid]
- immobility time in forced swimming test [2]: significant dose-dependent reduction in immobility time
- IC50 [1, 4]: 20 nM

SMILES: CC(O[C@@H]1C[C@@H]2[C@H]([C@]1(N)C(=O)O)[C@@]2(F)C(=O)O)c1ccc2ccccc2c1 (relative stereo) [57]
- melting point: > 185 °C
